pIC50: −log10 of the molar value.
What follows are compounds tested against T1, human type 1 glycine transporter (GlyT1) (Homo sapiens, UniProt P48067) (assay: Glycine uptake inhibition experiment ([3H]glycine uptake)). Settings: GlyT1.
T1 construct: T98G cells (glioma cells) expressing human type 1 glycine transporter (GlyT1) were used
T1 sequence (P48067 1-706): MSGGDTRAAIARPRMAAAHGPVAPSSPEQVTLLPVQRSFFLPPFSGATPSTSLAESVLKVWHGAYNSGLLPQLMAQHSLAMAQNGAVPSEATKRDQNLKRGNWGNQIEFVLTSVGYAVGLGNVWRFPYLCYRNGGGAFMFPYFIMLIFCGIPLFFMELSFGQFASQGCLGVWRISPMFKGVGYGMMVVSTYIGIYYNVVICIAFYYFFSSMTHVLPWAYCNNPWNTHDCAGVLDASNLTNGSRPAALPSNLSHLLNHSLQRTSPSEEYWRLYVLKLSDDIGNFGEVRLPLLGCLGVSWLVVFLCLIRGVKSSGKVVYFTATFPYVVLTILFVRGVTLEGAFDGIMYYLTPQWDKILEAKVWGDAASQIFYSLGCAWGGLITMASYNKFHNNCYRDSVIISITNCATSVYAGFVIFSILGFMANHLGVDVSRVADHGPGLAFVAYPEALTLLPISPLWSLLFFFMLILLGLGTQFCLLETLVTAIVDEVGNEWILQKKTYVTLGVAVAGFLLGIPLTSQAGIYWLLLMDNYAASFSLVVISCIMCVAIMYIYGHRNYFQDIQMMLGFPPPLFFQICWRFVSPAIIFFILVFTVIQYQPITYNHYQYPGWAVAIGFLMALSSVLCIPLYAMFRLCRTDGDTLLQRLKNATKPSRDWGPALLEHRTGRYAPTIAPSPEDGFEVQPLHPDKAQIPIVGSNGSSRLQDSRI
Type: cell-based
Procedure, shortened: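 T98G glioma cells expressing human GlyT1 were pretreated 10 min with compound in HEPES buffer pH 7.4 (0.2% BSA), then incubated with compound plus 250 nM final [3H]glycine for 15 min at room temperature. Intracellular radioactivity was counted after NaOH lysis; 10 μM ALX5407 defined non-specific uptake. IC50 came from 10^−9–10^−5 M curves.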

Compound | pIC50
O=C(NC(c1cccc(F)c1Cl)[C@]1(O)CC[C@@H](F)CC1)c1cc(Cl)nnc1Cl (single isomer, unassigned) [Compound 305, 3,6-dichloro-N-[(2-chloro-3-fluorophenyl)(cis-4-fluoro-1-hydroxycyclohexyl)methyl]pyridazine-4-carboxamide] | 6.00
O=C(NC(c1cccc(Cl)n1)[C@]1(O)CC[C@@H](F)CC1)c1cc(C(F)(F)F)ncc1Cl (single isomer, unassigned) [Compound 309, 5-chloro-N-[(6-chloropyridin-2-yl)(cis-4-fluoro-1-hydroxycyclohexyl)methyl]-2-(trifluoromethyl)pyridine-4-carboxamide] | 6.26
O=C(NC(c1cccc(Cl)n1)[C@]1(O)CC[C@@H](F)CC1)c1nccc2ccccc12 (single isomer, unassigned) [Compound 310, N-[(6-chloropyridin-2-yl)(cis-4-fluoro-1-hydroxycyclohexyl)methyl]isoquinoline-1-carboxamide] | 6.26
O=C(NC(c1cccc(Cl)n1)C1(O)CCC(F)(F)CC1)c1nccc(C(F)(F)F)c1Cl (single isomer, unassigned) [Compound 311, 3-chloro-N-[(6-chloropyridin-2-yl)(4,4-difluoro-1-hydroxycyclohexyl)methyl]-4-(trifluoromethyl)pyridine-2-carboxamide] | 7.11
O=C(NC(c1ncccc1Cl)C1(O)CCC(F)(F)CC1)c1nccc(C(F)(F)F)c1Cl (single isomer, unassigned) [Compound 318, 3-chloro-N-[(3-chloropyridin-2-yl)(4,4-difluoro-1-hydroxycyclohexyl)methyl]-4-(trifluoromethyl)pyridine-2-carboxamide] | 6.62
O=C(NC(c1ncccc1Cl)C1(O)CCC(F)(F)CC1)c1nccc(C(F)(F)F)c1Cl (single isomer, unassigned) [Compound 319, 3-chloro-N-[(3-chloropyridin-2-yl)(4,4-difluoro-1-hydroxycyclohexyl)methyl]-4-(trifluoromethyl)pyridine-2-carboxamide] | 5.74
O=C(NC(c1cccnc1Cl)[C@]1(O)CC[C@@H](F)CC1)c1ccnc(C(F)(F)F)c1Cl (single isomer, unassigned) [Compound 321, 3-chloro-N-[(2-chloropyridin-3-yl)(cis-4-fluoro-1-hydroxycyclohexyl)methyl]-2-(trifluoromethyl)pyridine-4-carboxamide] | 6.23
O=C(NC(c1cccnc1Cl)[C@]1(O)CC[C@@H](F)CC1)c1cc(C(F)(F)F)ncc1Cl (single isomer, unassigned) [Compound 323, 5-chloro-N-[(2-chloropyridin-3-yl)(cis-4-fluoro-1-hydroxycyclohexyl)methyl]-2-(trifluoromethyl)pyridine-4-carboxamide] | 6.70
O=C(NC(c1cccnc1Cl)[C@]1(O)CC[C@@H](F)CC1)c1nccc(C(F)F)c1Cl (single isomer, unassigned) [Compound 324, 3-chloro-N-[(2-chloropyridin-3-yl)(cis-4-fluoro-1-hydroxycyclohexyl)methyl]-4-(difluoromethyl)pyridine-2-carboxamide] | 5.92
O=C(NC(c1cccnc1Cl)[C@]1(O)CC[C@@H](F)CC1)c1cc(C(F)(F)F)ccc1Cl (single isomer, unassigned) [Compound 325, 2-chloro-N-[(2-chloropyridin-3-yl)(cis-4-fluoro-1-hydroxycyclohexyl)methyl]-5-(trifluoromethyl)benzamide] | 6.37
O=C(NC(c1cccnc1Cl)[C@]1(O)CC[C@@H](F)CC1)c1nccc2ccccc12 (single isomer, unassigned) [Compound 326, N-[(2-chloropyridin-3-yl)(cis-4-fluoro-1-hydroxycyclohexyl)methyl]isoquinoline-1-carboxamide] | 5.96
O=C(NC(c1cccc(Cl)n1)[C@]1(O)CC[C@@H](F)CC1)c1nccc(C(F)F)c1Cl (single isomer, unassigned) [Compound 328, 3-chloro-N-[(6-chloropyridin-2-yl)(cis-4-fluoro-1-hydroxycyclohexyl)methyl]-4-(difluoromethyl)pyridine-2-carboxamide] | 6.70

Other lines, results leading:

pIC50 | Compound
6.17 | O=C(NC(c1cccc(F)c1Cl)[C@]1(O)CC[C@@H](F)CC1)c1c(Cl)cccc1C(F)(F)F (single isomer, unassigned) [Compound 306, 2-chloro-N-[(2-chloro-3-fluorophenyl)(cis-4-fluoro-1-hydroxycyclohexyl)methyl]-6-(trifluoromethyl)benzamide]
5.89 | O=C(NC(c1cccc(F)c1Cl)[C@]1(O)CC[C@@H](F)CC1)c1ccc(F)cc1Cl (single isomer, unassigned) [Compound 307, 2-chloro-N-[(2-chloro-3-fluorophenyl)(cis-4-fluoro-1-hydroxycyclohexyl)methyl]-4-fluorobenzamide]
6.42 | O=C(NC(c1cnccc1Cl)[C@]1(O)CC[C@@H](F)CC1)c1nccc(C(F)(F)F)c1Cl (single isomer, unassigned) [Compound 308, 3-chloro-N-[(4-chloropyridin-3-yl)(cis-4-fluoro-1-hydroxycyclohexyl)methyl]-4-(trifluoromethyl)pyridine-2-carboxamide]
6.05 | O=C(NC(c1cccc(F)c1Cl)[C@]1(O)CC[C@@H](F)CC1)c1cccc(Cl)c1C(F)(F)F (single isomer, unassigned) [Compound 312, 3-chloro-N-[(2-chloro-3-fluorophenyl)(cis-4-fluoro-1-hydroxycyclohexyl)methyl]-2-(trifluoromethyl)benzamide]
5.19 | O=C(NC(c1cccc(F)c1Cl)[C@]1(O)CC[C@@H](F)CC1)c1ccc(Cl)cc1C(F)(F)F (single isomer, unassigned) [Compound 313, 4-chloro-N-[(2-chloro-3-fluorophenyl)(cis-4-fluoro-1-hydroxycyclohexyl)methyl]-2-(trifluoromethyl)benzamide]
6.38 | O=C(NC(c1cccc(F)c1Cl)[C@]1(O)CC[C@@H](F)CC1)c1cc(Cl)ccc1C(F)(F)F (single isomer, unassigned) [Compound 314, 5-chloro-N-[(2-chloro-3-fluorophenyl)(cis-4-fluoro-1-hydroxycyclohexyl)methyl]-2-(trifluoromethyl)benzamide]
6.09 | Cc1ccc(C(F)(F)F)c(C(=O)NC(c2cccc(F)c2Cl)[C@]2(O)CC[C@@H](F)CC2)n1 (single isomer, unassigned) [Compound 315, N-[(2-chloro-3-fluorophenyl)(cis-4-fluoro-1-hydroxycyclohexyl)methyl]-6-methyl-3-(trifluoromethyl)pyridine-2-carboxamide]
5.24 | O=C(NC(c1cccc(F)c1Cl)[C@]1(O)CC[C@@H](F)CC1)c1ncc(Cl)cc1C(F)(F)F (single isomer, unassigned) [Compound 316, 5-chloro-N-[(2-chloro-3-fluorophenyl)(cis-4-fluoro-1-hydroxycyclohexyl)methyl]-3-(trifluoromethyl)pyridine-2-carboxamide]
6.82 | O=C(NC(c1cccc(F)c1Cl)[C@]1(O)CC[C@@H](F)CC1)c1cc(C(F)(F)F)cnc1Cl (single isomer, unassigned) [Compound 317, 2-chloro-N-[(2-chloro-3-fluorophenyl)(cis-4-fluoro-1-hydroxycyclohexyl)methyl]-5-(trifluoromethyl)pyridine-3-carboxamide]
6.00 | O=C(NC(c1cccc(F)c1Cl)[C@]1(O)CC[C@@H](F)CC1)c1ncc(C(F)(F)F)cc1Cl (single isomer, unassigned) [Compound 320, 3-chloro-N-[(2-chloro-3-fluorophenyl)(cis-4-fluoro-1-hydroxycyclohexyl)methyl]-5-(trifluoromethyl)pyridine-2-carboxamide]
6.46 | O=C(NC(c1cccnc1Cl)[C@]1(O)CC[C@@H](F)CC1)c1cccc(C(F)(F)F)c1Cl (single isomer, unassigned) [Compound 322, 2-chloro-N-[(2-chloropyridin-3-yl)(cis-4-fluoro-1-hydroxycyclohexyl)methyl]-3-(trifluoromethyl)benzamide]
7.09 | O=C(NC(c1cccc(Cl)n1)[C@]1(O)CC[C@@H](F)CC1)c1cccc(C(F)(F)F)c1Cl (single isomer, unassigned) [Compound 327]
6.85 | O=C(NC(c1cccc(F)n1)[C@]1(O)CC[C@@H](F)CC1)c1nccc(C(F)(F)F)c1Cl (single isomer, unassigned) [Compound 329, 3-chloro-N-[(cis-4-fluoro-1-hydroxycyclohexyl)(6-fluoropyridin-2-yl)methyl]-4-(trifluoromethyl)pyridine-2-carboxamide]
